Drawing on PubChem BioAssay AID234 (DTP/NCI, 2004), this text covers T/C for 25 compounds.

“And” between values parts separate entries of the source, which are not always exact repeats. Equal values may be shown once. Records with an inconclusive call do not appear.

In this test the test system is C3AKF1 mice, hamster liver cystadenocarcinoma s.c., tumor weight T/C. The test is described as follows: NCI In Vivo Anticancer Drug Screen. Data for tumor model Cystadenocarcinoma, Liver (No. 1) (Hamster) (subcutaneous) in C3AKF1 (CHKRF1) mice. The settings on record: endpoint: mean tumor weight, schedule: Q01DX010 (ip), higher = larger tumour. The protocol: The antitumor activity of compounds was measured in mice bearing transplantable tumors. Survival or tumor size were measured and the results are expressed as the measurement made in the treated group (T) divided by the measurement made in the vehicle treated control group (C). The tumor model used in this assay is Cystadenocarcinoma, Liver (No. 1) (Hamster) (subcutaneous) in C3AKF1 (CHKRF1) mice

The mark [1] stands for this setting: dose: 250.0 mg/kg/injection, vehicle: carboxymethylcellulose (CMC).
Setting [2] is: dose: 12.0 mg/kg/injection, vehicle: carboxymethylcellulose (CMC).
Where [3] appears, read: dose: 25.0 mg/kg/injection, vehicle: carboxymethylcellulose (CMC).
Setting [4] is: dose: 50.0 mg/kg/injection, vehicle: carboxymethylcellulose (CMC).
[5] abbreviates: dose: 0.5 mg/kg/injection, vehicle: carboxymethylcellulose (CMC).
The mark [6] stands for this setting: dose: 1.0 mg/kg/injection, vehicle: carboxymethylcellulose (CMC).
Where [7] appears, read: dose: 2.0 mg/kg/injection, vehicle: carboxymethylcellulose (CMC).
[8] abbreviates: dose: 4.0 mg/kg/injection, vehicle: carboxymethylcellulose (CMC).
Setting [9] is: dose: 100.0 mg/kg/injection, vehicle: carboxymethylcellulose (CMC).
Setting [10] is: dose: 125.0 mg/kg/injection, vehicle: carboxymethylcellulose (CMC).
Where [11] appears, read: dose: 500.0 mg/kg/injection, vehicle: carboxymethylcellulose (CMC).

Regarding `O=C(C[N+]12CN3CN(CN(C3)C1)C2)c1ccc(Cl)cc1`, the T/C is, setting by setting: (dose: 37.5 mg/kg/injection, vehicle: carboxymethylcellulose (CMC)) 99 % of control; (dose: 75.0 mg/kg/injection, vehicle: carboxymethylcellulose (CMC)) 109 % of control; (dose: 150.0 mg/kg/injection, vehicle: carboxymethylcellulose (CMC)) 90 % of control; (dose: 300.0 mg/kg/injection, vehicle: carboxymethylcellulose (CMC)) 69 % of control.

On to `CC(C)=CC1C(C(=O)OCc2ccc(C)cc2C)C1(C)C` (stereo not given), for which the T/C (dose: 87.5 mg/kg/injection, vehicle: carboxymethylcellulose (CMC)) was 90 % of control; the T/C (dose: 175.0 mg/kg/injection, vehicle: carboxymethylcellulose (CMC)) is 72 % of control; the T/C (dose: 350.0 mg/kg/injection, vehicle: carboxymethylcellulose (CMC)) is 63 % of control.

For the compound `O=P(c1ccccc1)(N1CC1)N1CC1`, the T/C reads like this: (dose: 3.0 mg/kg/injection, vehicle: saline) 108 % of control; (dose: 6.0 mg/kg/injection, vehicle: saline) 98 % of control; (dose: 12.0 mg/kg/injection, vehicle: saline) 76 % of control; (dose: 24.0 mg/kg/injection, vehicle: saline) 212 % of control.

Consider `O=[N+]([O-])c1ccccc1CSc1ncnc2nc[nH]c12`, for which the T/C (dose: 15.0 mg/kg/injection, vehicle: carboxymethylcellulose (CMC)) was 101 % of control; the T/C (dose: 31.0 mg/kg/injection, vehicle: carboxymethylcellulose (CMC)) was 99 % of control; the T/C under setting [1] is 61 % of control.

Turning to `S=c1nc[nH]c2c1ncn2C1CCCO1` (stereo not given), the T/C by setting is: under setting [2], 95 % of control; under setting [3], 74 % of control; under setting [4], 63 % of control.

Turning to `COc1ccc(Nc2ccnc3cc(Cl)ccc23)cc1CN(CCCl)CCCl`, the T/C by setting is: under setting [5], 95 % of control; under setting [6], 91 % of control; under setting [7], 93 % of control; under setting [8], 70 % of control.

Consider `CCOC(=O)C(Cc1ccc(N(CCCl)CCCl)cc1)NC=O` (stereo not given), for which the T/C (dose: 10.0 mg/kg/injection, vehicle: carboxymethylcellulose (CMC)) is 93 % of control; the T/C (dose: 20.0 mg/kg/injection, vehicle: carboxymethylcellulose (CMC)) is 93 % of control; the T/C (dose: 40.0 mg/kg/injection, vehicle: carboxymethylcellulose (CMC)) is 55 % of control.

On to `CCN(CC)CCN1C(=O)c2cccc3cccc(c23)C1=O`, for which the T/C runs as follows: (dose: 25.0 mg/kg/injection, vehicle: saline) 90 % of control; (dose: 50.0 mg/kg/injection, vehicle: saline) 163 % of control; (dose: 100.0 mg/kg/injection, vehicle: saline) 109 % of control.

On to `C/C=C1\CN(C)[C@H]2Cc3c([nH]c4ccccc34)[C@@H](c3cc4[nH]c5c(c4cc3OC)CCN3C[C@H]4C[C@H](CC)[C@H]3[C@@]5(C(=O)OC)C4)C[C@H]1C2C(=O)OC` (stereo not given in full), for which, where the note is “dose: 30.0 mg/kg/injection, vehicle: water”, the T/C is 70 % of control.

Take `CCCCCCCCCCCC[n+]1ccc(C)cc1C`: the T/C reads like this: (dose: 0.06 mg/kg/injection, vehicle: saline) 71 % of control; (dose: 0.12 mg/kg/injection, vehicle: saline) 75 % of control; (dose: 0.25 mg/kg/injection, vehicle: saline) 85 % of control.

Turning to `O=C(Nc1ccc(C2=NCCN2)cc1)c1ccc(C(=O)Nc2ccc(C3=NCCN3)cc2)c(NC(=O)c2ccc(C(=O)Nc3cc(C(=O)Nc4ccc(C5=NCCN5)cc4)ccc3C(=O)Nc3ccc(C4=NCCN4)cc3)cc2)c1`, the T/C (dose: 62.0 mg/kg/injection, vehicle: carboxymethylcellulose (CMC)) is 102 % of control and the T/C under setting [1] is 205 % of control.

With `Nc1ncnc2c1ncn2C1CCCO1` (stereo not given), the T/C under setting [3] is 107 % of control; the T/C under setting [4] is 107 % of control; the T/C (dose: 200.0 mg/kg/injection, vehicle: carboxymethylcellulose (CMC)) was 69 % of control.

Turning to `N[C@@H](Cc1ccc(N(CCCl)CCCl)cc1)C(=O)O`, the T/C runs as follows: under setting [5], 57 % of control; under setting [6], 63 % of control; under setting [7], 92 % of control; under setting [8], 75 % of control.

In the case of `CCCCCCCCCCCCCS`, the T/C runs as follows: under setting [3], 100 % of control; under setting [4], 69 % of control; under setting [9], 90 % of control.

Consider `O=C(O)c1ccc(-c2ccccc2)cc1`, for which the T/C runs as follows: under setting [4], 95 % of control; under setting [9], 49 % of control.

Consider `N#CCSc1nc(N)nc2nc[nH]c12`, for which the T/C runs as follows: under setting [7], 87 % of control; under setting [8], 102 % of control; (dose: 8.0 mg/kg/injection, vehicle: carboxymethylcellulose (CMC)) 98 % of control; (dose: 16.0 mg/kg/injection, vehicle: carboxymethylcellulose (CMC)) 99 % of control.

`CC1(C)CC(C)(c2ccccc2)c2ccccc21` (stereo not given): the T/C reads like this: (dose: 62.5 mg/kg/injection, vehicle: carboxymethylcellulose (CMC)) 97 % of control; under setting [10], 87 % of control; under setting [1], 90 % of control; under setting [11], 65 % of control.

Consider `CCOc1ccc(Nc2ncnc3nc[nH]c23)cc1CN(CCCl)CCCl`, for which the T/C is 78 % of control (dose: 1.0 mg/kg/injection, vehicle: saline); 99 % of control (dose: 2.0 mg/kg/injection, vehicle: saline); 98 % of control (dose: 4.0 mg/kg/injection, vehicle: saline).

`C=CCn1c(=O)n(CC=C)c(=O)n(CC=C)c1=O`: the T/C (dose: 22.5 mg/kg/injection, vehicle: saline) is 76 % of control; the T/C (dose: 45.0 mg/kg/injection, vehicle: saline) was 63 % of control; the T/C (dose: 90.0 mg/kg/injection, vehicle: saline) is 63 % of control.

With `NC(Cc1ccc(N(CCCl)CCCl)cc1)C(=O)O` (stereo not given), the T/C by setting is: under setting [6], 67 % of control; (dose: 1.25 mg/kg/injection, vehicle: carboxymethylcellulose (CMC)) 70 % of control; under setting [7], 86 % of control; (dose: 2.5 mg/kg/injection, vehicle: carboxymethylcellulose (CMC)) 65 % of control; under setting [8], 52 % of control; (dose: 5.0 mg/kg/injection, vehicle: carboxymethylcellulose (CMC)) 82 % of control.

On to `COc1ccc(-c2c(CC(=O)O)c3cc(OC)ccc3n2Cc2ccc(Cl)cc2)cc1`, for which the T/C is, setting by setting: under setting [10], 90 % of control; under setting [1], 100 % of control; under setting [11], 100 % of control.

For `Nc1nc(SCc2ccccc2Cl)c2[nH]cnc2n1`, the T/C under setting [2] was 55 % of control; the T/C under setting [3] is 104 % of control; the T/C under setting [4] was 60 % of control and 84 % of control; the T/C under setting [9] is 100 % of control and 109 % of control.

As to `CC1(C)N=C(N)N=C(N)N1c1cccc(Br)c1`, the T/C reads like this: (dose: 4.4 mg/kg/injection, vehicle: carboxymethylcellulose (CMC)) 82 % of control; (dose: 6.6 mg/kg/injection, vehicle: carboxymethylcellulose (CMC)) 84 % of control.

For `CCCCn1cnc2c(SC)nc(N)nc21`, the T/C runs as follows: (dose: 30.0 mg/kg/injection, vehicle: carboxymethylcellulose (CMC)) 88 % of control; (dose: 60.0 mg/kg/injection, vehicle: carboxymethylcellulose (CMC)) 74 % of control; (dose: 115.0 mg/kg/injection, vehicle: carboxymethylcellulose (CMC)) 75 % of control.

On to `C=CCNc1ccc(C)cc1`, for which the T/C (dose: 85.0 mg/kg/injection, vehicle: saline) is 64 % of control; the T/C (dose: 125.0 mg/kg/injection, vehicle: saline) was 91 % of control; the T/C (dose: 185.0 mg/kg/injection, vehicle: saline) was 78 % of control.
